Measured values as given in patent US7166738B2, “Non-nucleoside reverse transcriptase inhibitors” (Roche Palo Alto LLC, priority 2004, dated 2007).
Structures can show the parent of a compound that is named as a salt. Where two headings read alike, the source gives them in different places.

Key:
HIV-1 RT = HIV-1 RT (Human immunodeficiency virus type 1 group M subtype B, UniProt P03366); experiment: HIV Reverse Transcriptase Assay: Inhibitor IC50 Determination; assay type: biochemical
Procedure: HIV Reverse Transcriptase Assay: Inhibitor IC50 Determination
HIV-1 RT assay was carried out in 96-well Millipore MultiScreen MADVNOB50 plates using purified recombinant enzyme and a poly(rA)/oligo(dT)16 template-primer in a total volume of 50 μL. The assay constituents were 50 mM Tris/HCl, 50 mM NaCl, 1 mM EDTA, 6 mM MgCl2, 5 μM dTTP, 0.15 μCi [^3H] dTTP, 5 μg/ml poly (rA) pre annealed to 2.5 μg/ml oligo (dT)16 and a range of inhibitor concentrations in a final concentration of 10% DMSO. Reactions were initiated by adding 4 nM HIV-1 RT and after incubation at 37° C. for 30 min, they were stopped by the addition of 50 μl ice cold 20% TCA and allowed to precipitate at 4° C. for 30 min. The precipitates were collected by applying vacuum to the plate and sequentially washing with 3×200 μl of 10% TCA and 2×200 μl 70% ethanol. Finally, the plates were dried and radioactivity counted in a Packard TopCounter after the addition of 25 μl scintillation fluid per well. IC50's were calculated by plotting % inhibition versus log10 inhibitor concentrations.

HIV = experiment: Anti-viral Assay (method of Pauwels et al.); assay type: cell-based; details: Human immunodeficiency virus 1
Procedure: Anti-viral assays were carried out by the method described by R. E. Pauwels et al. J. Virol. Methods 1988 20(4):309–322.

[1] = purified recombinant enzyme, poly(rA)/oligo(dT)16 template-primer, 37° C. 30 min, read-out: RT inhibition

SMILES	melting point [°C]	further results
Cc1ccc(CC(=O)Nc2ccc(S(N)(=O)=O)cc2Cl)c(F)c1Oc1cc(C#N)cc(C(F)F)c1 [Compound I-84, N-(2-Chloro-4-sulfamoyl-phenyl)-2-[3-(3-cyano-5-difluoromethyl-phenoxy)-2-fluoro-4-methyl-phenyl]-acetamide]	218 to 218.7	IC50 (HIV-1 RT; [1]): 14 nM; EC50 (HIV): 0.4 nM
CCCC(=O)NS(=O)(=O)c1ccc(NC(=O)Cc2ccc(Cl)c(Oc3cc(Cl)cc(C#N)c3)c2F)c(Cl)c1.[Na] [Compound I-138, N-(4-Butyrylsulfamoyl-2-chloro-phenyl)-2-[4-chloro-3-(3-chloro-5-cyano-phenoxy)-2-fluoro-phenyl]-acetamide; sodium salt]	157.2 to 157.9	IC50 (HIV-1 RT): 4.5 nM
CCc1ccc(CC(=O)Nc2ccc(S(N)(=O)=O)cc2C)c(F)c1Oc1cc(C#N)cc(C(F)F)c1 [Compound I-180, 2-[3-(3-Cyano-5-difluoromethyl-phenoxy)-4-ethyl-2-fluoro-phenyl]-N-(2-methyl-4-sulfamoyl-phenyl)-acetamide]	237.6 to 238.4	IC50 (HIV-1 RT; [1]): 9.1 nM
CCC(=O)NS(=O)(=O)c1ccc(NC(=O)Cc2ccc(Br)c(Oc3cc(Cl)cc(C#N)c3)c2F)c(Cl)c1 [Compound I-63, 2-[4-Bromo-3-(3-chloro-5-cyano-phenoxy)-2-fluoro-phenyl]-N-(2-chloro-4-propionylsulfamoyl-phenyl)-acetamide; sodium salt]	–	IC50 (HIV-1 RT): 5.8 nM
CC(C)[C@H](N)C(=O)NS(=O)(=O)c1ccc(NC(=O)Cc2ccc(Cl)c(Oc3cc(Cl)cc(C#N)c3)c2F)c(Cl)c1.[Na] [Compound I-127, N-[4-((S)-2-Amino-3-methyl-butyrylsulfamoyl)-2-chloro-phenyl]-2-[4-chloro-3-(3-chloro-5-cyano-phenoxy)-2-fluoro-phenyl]-acetamide; sodium salt]	219.4 to 220.2	IC50 (HIV-1 RT): 5.9 nM
COCC(=O)N(C)S(=O)(=O)c1ccc(NC(=O)Cc2ccc(Cl)c(Oc3cc(Cl)cc(C#N)c3)c2F)c(Cl)c1 [Compound I-171, 2-[4-Chloro-3-(3-chloro-5-cyano-phenoxy)-2-fluoro-phenyl]-N-{2-chloro-4-[(2-methoxy-acetyl)-methyl-sulfamoyl]-phenyl}-acetamide]	183.2 to 185.5	–
Cc1cc(S(=O)(=O)NC2CCC(O)CC2)ccc1NC(=O)Cc1ccc(C)c(Oc2cc(Cl)cc(C#N)c2)c1 (stereo not drawn) [Compound I-121, 2-[3-(3-Chloro-5-cyano-phenoxy)-4-methyl-phenyl]-N-[4-(4-hydroxy-cyclohexylsulfamoyl)-2-methyl-phenyl]-acetamide]	195.1 to 197.7	–
CC(F)(F)c1cc(C#N)cc(Oc2c(Cl)ccc(CC(=O)Nc3ccc(S(N)(=O)=O)cc3)c2F)c1 [Compound I-95, 2-{4-Chloro-3-[3-cyano-5-(1,1-difluoro-ethyl)-phenoxy]-2-fluoro-phenyl}-N-(4-sulfamoyl-phenyl)-acetamide]	207 to 209.8	–
CN(C(=O)Cc1ccc(Cl)c(Oc2cc(Cl)cc(C#N)c2)c1F)c1ccccc1Cl [Compound I-111, 2-[4-Chloro-3-(3-chloro-5-cyano-phenoxy)-2-fluoro-phenyl]-N-(2-chloro-phenyl)-N-methyl-acetamide]	134 to 137.1	–
CCOC(=O)C(=O)Nc1ccc(NC(=O)Cc2ccc(C)c(Oc3cc(Cl)cc(C#N)c3)c2)c(C)c1 [Compound I-178, N-(4-{2-[3-(3-Chloro-5-cyano-phenoxy)-4-methyl-phenyl]-acetylamino}-3-methyl-phenyl)-oxalamic acid ethyl ester]	182.5 to 183.9	–
Cc1cc(OCCCS(N)(=O)=O)ccc1NC(=O)Cc1ccc(Cl)c(Oc2cc(Cl)ccc2Br)c1 [Compound I-3, 2-[3-(2-Bromo-5-chloro-phenoxy)-4-chloro-phenyl]-N-[2-methyl-4-(3-sulfamoyl-propoxy)-phenyl]-acetamide]	190.1 to 192.2	–
Cc1cc(N2CCS(=O)(=O)CC2)ccc1NC(=O)Cc1ccc(C)c(Oc2cc(Cl)cc(C#N)c2)c1 [Compound I-161, 2-[3-(3-Chloro-5-cyano-phenoxy)-4-methyl-phenyl]-N-[4-(1,1-dioxo-1λ^6-thiomorpholin-4-yl)-2-methyl-phenyl]-acetamide]	64.8 to 65.4	–
COc1ccc(CC(=O)Nc2ccc(S(N)(=O)=O)cc2)cc1Oc1cc(C#N)ccc1Cl [Compound I-65, 2-[3-(2-Chloro-5-cyano-phenoxy)-4-methoxy-phenyl]-N-(4-sulfamoyl-phenyl)-acetamide]	252.3 to 254.3	–
Cc1cc(S(N)(=O)=O)ccc1NC(=O)Cc1ccc(Cl)c(Oc2cc(C#N)cc(C#N)c2)c1F [Compound I-32, 2-[4-Chloro-3-(3,5-dicyano-phenoxy)-2-fluoro-phenyl]-N-(2-methyl-4-sulfamoyl-phenyl)-acetamide]	248.4 to 250.8	–
COc1ccc(CC(=O)Nc2ccccc2Cl)cc1Oc1cc(C#N)ccc1Cl [Compound I-62, 2-[3-(2-Chloro-5-cyano-phenoxy)-4-methoxy-phenyl]-N-(2-chloro-phenyl)-acetamide]	194 to 197.8	–
Cc1cc(S(=O)(=O)NCC(C)O)ccc1NC(=O)Cc1ccc(C)c(Oc2cc(Cl)cc(C#N)c2)c1 (stereo not drawn) [Compound I-129, 2-[3-(3-Chloro-5-cyano-phenoxy)-4-methyl-phenyl]-N-[4-(2-hydroxy-propylsulfamoyl)-2-methyl-phenyl]-acetamide]	172.2 to 173.4	–
CCC(=O)N(C)S(=O)(=O)c1ccc(NC(=O)Cc2ccc(Cl)c(Oc3cc(Cl)cc(C#N)c3)c2F)c(Cl)c1 [Compound I-162, 2-[4-Chloro-3-(3-chloro-5-cyano-phenoxy)-2-fluoro-phenyl]-N-[2-chloro-4-(methyl-propionyl-sulfamoyl)-phenyl]-acetamide]	198.2 to 200.6	–
Cc1ccc(CC(=O)Nc2ccccc2Cl)c(F)c1Oc1cc(C#N)cc(C(F)F)c1 [Compound I-86, N-(2-Chloro-phenyl)-2-[3-(3-cyano-5-difluoromethyl-phenoxy)-2-fluoro-4-methyl-phenyl]-acetamide]	163.3 to 164.4	–
Cc1ccc(CC(=O)Nc2ccccc2Cl)cc1Oc1cc(C#N)cc(C#N)c1 [Compound I-34, N-(2-Chloro-phenyl)-2-[3-(3,5-dicyano-phenoxy)-4-methyl-phenyl]-acetamide]	175.1 to 177.5	–
CCN(CC)CC(=O)NS(=O)(=O)c1ccc(NC(=O)Cc2ccc(Cl)c(Oc3cc(Cl)cc(C#N)c3)c2F)c(Cl)c1.Cl	195.3 to 197.2	–
CCc1cc(CC(=O)Nc2ccc(S(N)(=O)=O)cc2C)cc(Oc2cc(C#N)ccc2Cl)c1 [Compound I-106, 2-[3-(2-Chloro-5-cyano-phenoxy)-5-ethyl-phenyl]-N-(2-methyl-4-sulfamoyl-phenyl)-acetamide]	231.6 to 233.1	–
COc1ccc(CC(=O)Nc2ccc(S(N)(=O)=O)cc2C)cc1Oc1cc(C#N)cc(C(F)F)c1 [Compound I-93, 2-[3-(3-Cyano-5-difluoromethyl-phenoxy)-4-methoxy-phenyl]-N-(2-methyl-4-sulfamoyl-phenyl)-acetamide]	175 to 177.2	–
Cc1cc(S(N)(=O)=O)ccc1NC(=O)Cc1ccc(C)c(Oc2cc(Cl)cc(C#N)c2)c1F [Compound I-74, 2-[3-(3-Chloro-5-cyano-phenoxy)-2-fluoro-4-methyl-phenyl]-N-(2-methyl-4-sulfamoyl-phenyl)-acetamide]	230 to 232.2	–
Cc1cc(N2CCCCS2(=O)=O)ccc1NC(=O)Cc1ccc(C)c(Oc2cc(Cl)cc(C#N)c2)c1 [Compound I-158, 2-[3-(3-Chloro-5-cyano-phenoxy)-4-methyl-phenyl]-N-[4-(1,1-dioxo-1λ^6-[1,2]thiazinan-2-yl)-2-methyl-phenyl]-acetamide]	84.3 to 85.6	–
Cc1cc(C#N)cc(C)c1Oc1cc(CC(=O)Nc2ccccc2Cl)ccc1Cl [Compound I-68, 2-[4-Chloro-3-(4-cyano-2,6-dimethyl-phenoxy)-phenyl]-N-(2-chloro-phenyl)-acetamide]	183.9 to 185.1	–
CCCC(=O)N(C)S(=O)(=O)c1ccc(NC(=O)Cc2ccc(Cl)c(Oc3cc(Cl)cc(C#N)c3)c2F)c(Cl)c1 [Compound I-139, N-[4-(Butyryl-methyl-sulfamoyl)-2-chloro-phenyl]-2-[4-chloro-3-(3-chloro-5-cyano-phenoxy)-2-fluoro-phenyl]-acetamide]	186.9 to 187.6	–
Cc1ccc(CC(=O)Nc2ccc(S(N)(=O)=O)cc2)cc1Oc1cc(Cl)ccc1Br [Compound I-30, 2-[3-(2-Bromo-5-chloro-phenoxy)-4-methyl-phenyl]-N-(4-sulfamoyl-phenyl)-acetamide]	236.9 to 239.3	–
Cc1cc(S(=O)(=O)NCCN2CCOCC2)ccc1NC(=O)Cc1ccc(C)c(Oc2cc(Cl)cc(C#N)c2)c1 [Compound I-118, 2-[3-(3-Chloro-5-cyano-phenoxy)-4-methyl-phenyl]-N-[2-methyl-4-(2-morpholin-4-yl-ethylsulfamoyl)-phenyl]-acetamide]	177 to 181	–
